Reference: patent US7122668B2, “Platinum complexes and their use in therapy” (priority 2002, dated 2006)

Key:
C-26 cells [1] = experiment: Determination of Pt-DNA adducts by FAAS; format: cell-based, human
Description: (§1) Cells were seeded for 48 hr before one of the drugs was added to the culture medium. After 24 hr of exposure, the complexes were removed and the cells washed twice with ice-cold PBS and pelleted. DNA from platinum-containing material (2*10^6 cells) was extracted from the cell pellet by QIAamp DNA Blood Kit (QIAGEN, Germany) according to the manufacture instructions. DNA yield was determined by measuring the concentration of DNA in the eluate by absorbance at 260 nm.

OV-1063 cells [2] = experiment: Determination of Pt-DNA adducts by FAAS; format: cell-based, human
Description: as §1

plasmid pS16-hGH DNA = experiment: Determination of Pt-DNA adducts by EtBr fluorescence; format: binding; conditions: DNA modified 24 hr
Description: A plasmid (4.8 kbp) containing a gene coding for human growth hormone, plasmid pS16-hGH, was prepared as previously described^(23). The freshly prepared DNA was analyzed by agarose gel (1%) electrophoresis using post-staining with SYBR Green I fluorescent dye (Molecular Probes, Eugene, Oreg.). […] The ratio of absorbance at 260 nm to that at 280 nm was always between 1.8 and 1.9.
DNA were modified by the platinum complexes in 10 mM NaClO4 (pH 7.0) at 37° C. in the dark for 24 hr. Measurements of EtBr fluorescence were performed on an LS50B luminescence spectrometer (Perkin Elmer, Norwalk, Conn.). Fluorescence measurements of DNA modified by platinum in the presence of EtBr were performed using the excitation wavelength of 546 nm (slit 10 run) and emission wavelength of 590 nm (slit 10 nm) at 25° C. The concentrations were 0.01 mg/ml for DNA and 0.04 mg/ml for EtBr, which corresponded to the saturation of all intercalation sites of EtBr in DNA.
EtBr, as the fluorescent probe, was used to distinguish between perturbations induced in DNA by adducts of platinum (II) compounds^(14). Binding of EtBr by intercalation is blocked in a stoichiometric manner by formation of the bifunctional adducts, as of Cis-Pt, which results in a loss of fluorescence intensity. On the other hand, formation of monofunctional adducts results only in a slight decrease of EtBr fluorescence.

[3] = test system: caspase-3 in OV-1063 cells; experiment: EnzChek Caspase-3 assay; format: cell-based, human
Text: (§2) (2) By the EnzChektm Caspase-3 Assay Kit (Molecular probes, Eugene, Oreg.). This Kit allows the detection of apoptosis by assaying for increases in caspase-3 and other DEVD-specific protease activities (e.g., caspase-7). The basis for the assay is rodamine 110 bis-(N-CBZ-aspartil-L-glutarnyl-L-valyl-aspartic acid amide) (Z-DEVD-R110). This substrate is a bisamide derivative of rhodamine 110(R110) containing DEVD peptides covalently linked to each of R110's amino groups. Upon enzymatic cleavage, the non-fluorescent bisamide substrate converted to the fluorescent R110, which can be quantified by fluorescence microplate reader using excitation at 485±10 nm and emission detection at 535±10 nm.
(§3) (12) (5 μM and 7.5 μM, respectively) for 5 or 16 hr. Both “induced” and “control” cells were then harvested and lysed. Enzyme reactions were performed in 96-well plates with 50 μg of cytosolic proteins (55 minutes of incubation) and with a final concentration of 25 μM Z-DEVD-R110 substrate as described in the kit protocol.

caspase-3 in C-26 cells = experiment: EnzChek Caspase-3 assay; format: cell-based, human; conditions: 4.5 μM complex, cisplatin 1.5 μM, 5 or 16 hrs
Text: as §2, §3

C-26 cells [4] = format: cell-based; conditions: cell lines of Table 1
Description: A human ovarian carcinoma cell line (OV-1063), established at the Hadassah University hospital and human colon carcinoma cell line (C-26) were maintained in RPMI-1640 medium supplemented with 10% FCS, antibiotics and glutamine. All culture medium components were purchased from Biological Industries (Beit-HaEmek, Israel). Both cell lines were maintained at 37° C. in a water-jacketed CO2 incubator.
Cytotoxicity of the synthesized complexes was tested by the methylene blue (MB) staining assay^(19). A fixed number of exponentially growing cells in 200 μl medium were plated in 96-microwell, flat-bottomed plates. For each of the complexes tested, 4 well were used. Following 24 hr in culture, 20 μl of different concentration of the complexes were added to each well containing untreated cells. Normal saline was added to the controls. Cells were exposed to complexes for 4, 24, or 72 hr. At the end of exposure for a fixed time interval, the treated cells as well as parallel control cells were washed and incubation was continued in fresh medium until termination of the experiment. Following 72 hr of growth, cells were fixed by adding 50 μl of 2.5% of glutaraldehyde to each well for 15 min. Fixed cells were rinsed 10 times with fresh de-ionized water and once with borate buffer (0.1 M, pH=8.5), dried and stained with MB (100 μl of 1% solution in 0.1 M borate buffer, pH=8.5) for 1 hr at room temperature. Stained cells were rinsed thoroughly with de-ionized water to remove any non-cell-bound die and then dried. The MB bound to the fixed cells was extracted by incubation at 37° C. with 200 μl of 0.1N HCl for 1 hr, and the net optical density (OD) of the die in each well was determined by a plate spectrophotometer (Labsystems Multyskan BICHROMATIC, Finland) at 620 nm.

C-26 cells [5] = conditions: 5 hr, 4.5 μM
Text: (§4) (1) By staining of the C-26 and OV-1063 cells with Merocyanine 540 (MC 540) (Molecular probes, Oregon, USA) and 4′, 6-diamidino-2-phenylindone dihydrochloride (DAPI) (Molecular probes, Oregon, USA). This assay is based on the observation that soon after the initiation of apoptosis, phosphatidylserine (PS) translocates from the inner face of the plasma membrane to the cell surface. At this point, PS can be easily detected by staining with MC 540, which has a strong affinity to PS^(25). Chromatin condensation was assessed by staining with DAPI, which preferentially stains double stranded DNA. In the following experiments samples containing 5*10^5 cells were cultured on 6-well plates covered with a glass coverslip. After treatment of cells with IC50 of the complexes, cells were washed with PBS and incubated for 2 min in the dark in 500 μl of PBS containing 2.5 μl of MC 540 (1 mg/ml). After that cells were washed with PBS, fixated with 4% formaldehyde and stained with 300 μl DAPI (3 μM). Thereafter, glass coverslip was placed on a glass slide and photographed using a fluorescence confocal microscope.
(§5) Apoptosis, also known as programmed cell death, is involved in the regulation of cell number in multicellular organism, and the pathogenesis of various diseases, including tumor progression, neurodegenerative disorders and viral infections. […]

OV-1063 cells [6] = conditions: 5 hr, 6.5 μM
Text: as §4, §5

C1CCNCC1.Cc1ccncc1.[Cl][Pt][Cl] [Complex 5, trans-[PtCl2(4-picoline)(piperidine)]]
Pt-DNA adducts (C-26 cells [1]; C-26, 24 hr): 51 pmol Pt/50 μg DNA
DNA platination relative to Cis-Pt (C-26 cells [1]; C-26 cells): the same
Pt-DNA adducts (OV-1063 cells [2]; OV-1063, 24 hr): 41 pmol Pt/50 μg DNA
DNA platination relative to Cis-Pt (OV-1063 cells [2]; OV-1063 cells): the same
decrease of EtBr fluorescence intensity by DNA adducts (plasmid pS16-hGH DNA): lower than that of cisplatin, however, greater than that of transplatin
caspase-3 activation, increase in fluorescence vs untreated cells ([3]; 5 hr, 6.5 μM piperidine complex or 7.5 μM piperazine complex): ~2 fold
caspase-3 activation, increase in fluorescence vs untreated cells ([3]; 16 hr): 3 fold
caspase-3 fluorescent signal (caspase-3 in C-26 cells): no fluorescent signal
folds less active than cisplatin (C-26 cells [4]): 3 folds
apoptosis by MC 540/DAPI staining (C-26 cells [5]): slightly red-fluorescent
apoptosis by MC 540/DAPI staining (OV-1063 cells [6]): large proportion of the OV-1063 cells appeared to be apoptotic
